Assay results published in the supplement of paper PMC11061612.

Columns and labels:
LN-229 (Glioblastoma) [1] = assay: Bliss excess, mean over the matrix (fraction); higher = more synergy
Summary of the method: (§1)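 Bliss excess equals the observed combination effect minus the expected value EA + EB − EA·EB, where EA and EB are the effects of each agent alone. Combination Emax is the second-highest inhibition within the matrix. Inhibition was scaled from CellTiter-Glo 2.0 luminescence, with 0 set by vehicle wells and 1 by blank wells, after 72 hours of two-drug dosing of cells plated in 1536-well plates.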

A2058 (Melanoma) [2] = assay: as above
Summary of the method: as §1

[3] = tested on: LXF-289 (Lung Adenocarcinoma); assay: as above
Summary of the method: as §1

[4] = tested on: RERF-GC-1B (Gastric Carcinoma); assay: as above
Summary of the method: as §1

[5] = tested on: RERF-LC-Sq1 (Squamous Cell Lung Carcinoma); assay: as above
Summary of the method: as §1

WM793B (Melanoma) [6] = assay: as above
Summary of the method: as §1

[7] = tested on: NCI-H446 (Small Cell Lung Carcinoma); assay: as above
Summary of the method: as §1

[8] = tested on: NCI-H23 (Lung Adenocarcinoma); assay: as above
Summary of the method: as §1

[9] = tested on: GP5d (Colorectal Carcinoma); assay: as above
Summary of the method: as §1

WM278 (Melanoma) [10] = assay: as above
Summary of the method: as §1

[11] = tested on: LB996-RCC (Kidney Carcinoma); assay: as above
Summary of the method: as §1

[12] = tested on: 23132-87 (Gastric Carcinoma); assay: as above
Summary of the method: as §1

SF268 (Low Grade Glioma) [13] = assay: as above
Summary of the method: as §1

[14] = tested on: OAW-42 (Ovarian Carcinoma); assay: as above
Summary of the method: as §1

[15] = tested on: HEC-1 (Endometrial Carcinoma); assay: as above
Summary of the method: as §1

[16] = tested on: SU-DHL-10 (B-Cell Non-Hodgkin's Lymphoma); assay: as above
Summary of the method: as §1

[17] = tested on: CAL-120 (Breast Carcinoma); assay: as above
Summary of the method: as §1

[18] = tested on: FADU (Head and Neck Carcinoma); assay: as above
Summary of the method: as §1

[19] = tested on: KE-37 (T-Lymphoblastic Leukemia); assay: as above
Summary of the method: as §1

GB-1 (Glioblastoma) [20] = assay: as above
Summary of the method: as §1

[21] = tested on: HCT-15 (Colorectal Carcinoma); assay: as above
Summary of the method: as §1

LN-229 (Glioblastoma) [22] = assay: combination Emax (second highest fraction inhibited in the dose matrix, 72 h); higher = more inhibition; extreme values may be limits of the assay
Summary of the method: as §1

A2058 (Melanoma) [23] = assay: as above
Summary of the method: as §1

[24] = tested on: LXF-289 (Lung Adenocarcinoma); assay: as above
Summary of the method: as §1

[25] = tested on: RERF-GC-1B (Gastric Carcinoma); assay: as above
Summary of the method: as §1

[26] = tested on: RERF-LC-Sq1 (Squamous Cell Lung Carcinoma); assay: as above
Summary of the method: as §1

WM793B (Melanoma) [27] = assay: as above
Summary of the method: as §1

[28] = tested on: NCI-H446 (Small Cell Lung Carcinoma); assay: as above
Summary of the method: as §1

[29] = tested on: NCI-H23 (Lung Adenocarcinoma); assay: as above
Summary of the method: as §1

[30] = tested on: GP5d (Colorectal Carcinoma); assay: as above
Summary of the method: as §1

WM278 (Melanoma) [31] = assay: as above
Summary of the method: as §1

[32] = tested on: LB996-RCC (Kidney Carcinoma); assay: as above
Summary of the method: as §1

[33] = tested on: 23132-87 (Gastric Carcinoma); assay: as above
Summary of the method: as §1

SF268 (Low Grade Glioma) [34] = assay: as above
Summary of the method: as §1

[35] = tested on: OAW-42 (Ovarian Carcinoma); assay: as above
Summary of the method: as §1

[36] = tested on: HEC-1 (Endometrial Carcinoma); assay: as above
Summary of the method: as §1

[37] = tested on: SU-DHL-10 (B-Cell Non-Hodgkin's Lymphoma); assay: as above
Summary of the method: as §1

[38] = tested on: CAL-120 (Breast Carcinoma); assay: as above
Summary of the method: as §1

[39] = tested on: FADU (Head and Neck Carcinoma); assay: as above
Summary of the method: as §1

[40] = tested on: KE-37 (T-Lymphoblastic Leukemia); assay: as above
Summary of the method: as §1

GB-1 (Glioblastoma) [41] = assay: as above
Summary of the method: as §1

[42] = tested on: HCT-15 (Colorectal Carcinoma); assay: as above
Summary of the method: as §1

CC(=O)c1c(C)c2cnc(Nc3ccc(N4CCNCC4)cn3)nc2n(C2CCCC2)c1=O [Palbociclib] + CN(CC[C@H](CSC1=CC=CC=C1)NC2=C(C=C(C=C2)S(=O)(=O)NC(=O)C3=CC=C(C=C3)N4CCC(CC4)[C@H](C5=CC=CC=C5C6=CC=C(C=C6)Cl)O)S(=O)(=O)C(F)(F)F)CCO [AZD4320] (first compound max 10 µM, 7x7, partner max 1 µM)
Bliss excess (LN-229 (Glioblastoma) [1]): -0.059 | Bliss excess (A2058 (Melanoma) [2]): -0.0261 | Bliss excess [3]: -0.0091 | Bliss excess [4]: -0.0147 | Bliss excess [5]: -0.0176 | Bliss excess (WM793B (Melanoma) [6]): -0.0525 | Bliss excess [7]: -0.0065 | Bliss excess [8]: -0.0367 | Bliss excess [9]: 0.0238 | Bliss excess (WM278 (Melanoma) [10]): -0.106 | Bliss excess [11]: -0.0652 | Bliss excess [12]: -0.093 | Bliss excess (SF268 (Low Grade Glioma) [13]): -0.0438 | Bliss excess [14]: -0.0177 | Bliss excess [15]: -0.125 | Bliss excess [16]: 0.0319 | Bliss excess [17]: -0.0614 | Bliss excess [18]: -0.137 | Bliss excess [19]: -0.0137 | Bliss excess (GB-1 (Glioblastoma) [20]): -0.111 | Bliss excess [21]: -0.0286 | combination Emax (LN-229 (Glioblastoma) [22]): 0.126 | combination Emax (A2058 (Melanoma) [23]): 0.323 | combination Emax [24]: 0.449 | combination Emax [25]: 0.35 | combination Emax [26]: 0.575 | combination Emax (WM793B (Melanoma) [27]): 0.474 | combination Emax [28]: 0.887 | combination Emax [29]: 0.312 | combination Emax [30]: 0.592 | combination Emax (WM278 (Melanoma) [31]): 0.711 | combination Emax [32]: 0.729 | combination Emax [33]: 0.578 | combination Emax (SF268 (Low Grade Glioma) [34]): 0.35 | combination Emax [35]: 0.562 | combination Emax [36]: 0.298 | combination Emax [37]: 0.995 | combination Emax [38]: 0.815 | combination Emax [39]: 0.356 | combination Emax [40]: 1 | combination Emax (GB-1 (Glioblastoma) [41]): 0.209 | combination Emax [42]: 0.726
